Test results as given in patent US9399646B2 (Genentech, Inc., priority 2010, dated 2016).

Columns and labels:
ER-α in MCF-7 cells = molecular target: T1, ER-α in MCF-7 cells (Homo sapiens, UniProt P03372); assay: Breast cancer cell ER-α in cell western assay (SP1); assay type: cell-based; parameters: endogenous in cells; host or cells: MCF-7; settings: 4 or 24 hr post compound addition; for Emax: MCF7, SP1 antibody, read-out: ER-α In Cell Western Assay (SP1) Max Response; for DC50: SP1 antibody, read-out: ER-α In Cell Western Assay (SP1) IC50
T1 sequence (P03372 1-595): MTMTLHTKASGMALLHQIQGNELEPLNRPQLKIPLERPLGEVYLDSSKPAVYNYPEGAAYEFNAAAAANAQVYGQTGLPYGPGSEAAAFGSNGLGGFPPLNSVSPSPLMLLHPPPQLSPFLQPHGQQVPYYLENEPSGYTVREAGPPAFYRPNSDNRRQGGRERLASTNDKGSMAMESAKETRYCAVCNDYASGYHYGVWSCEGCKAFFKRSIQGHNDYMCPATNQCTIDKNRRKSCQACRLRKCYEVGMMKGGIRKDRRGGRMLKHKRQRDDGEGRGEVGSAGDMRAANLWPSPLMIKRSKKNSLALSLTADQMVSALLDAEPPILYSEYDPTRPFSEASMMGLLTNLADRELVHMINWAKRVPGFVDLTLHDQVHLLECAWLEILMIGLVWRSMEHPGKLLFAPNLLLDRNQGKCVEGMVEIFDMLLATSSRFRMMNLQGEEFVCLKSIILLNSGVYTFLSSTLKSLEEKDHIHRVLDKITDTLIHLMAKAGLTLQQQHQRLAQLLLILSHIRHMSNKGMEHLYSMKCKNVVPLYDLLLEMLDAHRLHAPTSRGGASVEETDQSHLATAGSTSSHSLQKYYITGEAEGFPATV
Summary of the method: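 Fixed cells were immunostained with SP1 anti-ER antibody; ER signal (800 nm) was normalized to DRAQ5 DNA signal (700 nm) and expressed as % of untreated cells.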

MCF-7 cells = assay: Breast cancer cell viability assay (CellTiter-Glo, 5 days); assay type: cell-based; settings: 5 days' compound exposure; for IC50: Homo sapiens, MCF7, 120 h
Summary of the method: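 MCF-7 cells, 320 per well in RPMI with 10% FBS and 20 mM HEPES, adhered overnight, then exposed 5 days to an eleven-point semilog dilution (final 0.3-0.000003 μM). CellTiter-Glo luminescence read; % viability = (sample − cell-free background)/(untreated − background) × 100.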

| Structure (SMILES) | Emax (ER-α in MCF-7 cells) [%] | DC50 (ER-α in MCF-7 cells) [nM] | MCF7 Viability Assay Max Response (MCF-7 cells) | IC50 (MCF-7 cells) [nM] |
| --- | --- | --- | --- | --- |
| CC/C(=C(/c1ccc(/C=C/C(=O)O)cc1)c1ccc2[nH]ncc2c1)c1cccc(-c2ccccn2)c1 [Compound 390, (E)-3-(4-((E)-1-(1H-Indazol-5-yl)-2-(3-(pyridin-2-yl)phenyl)but-1-en-1-yl)phenyl)acrylic acid] | ≥ 40 | ≤ 100 | ++ (++ = a single % value ≧ 40%) | ≤ 100 |
| CC/C(=C(/c1ccc(/C=C/C(=O)O)cc1)c1ccc2[nH]ncc2c1)c1cccc(-c2nccs2)c1 [Compound 391, (E)-3-(4-((E)-1-(1H-Indazol-5-yl)-2-(3-(thiazol-2-yl)phenyl)but-1-en-1-yl)phenyl)acrylic acid] | ≥ 40 | ≤ 100 | ++ (++ = a single % value ≧ 40%) | ≤ 100 |
| CC/C(=C(/c1ccc(/C=C/C(=O)O)cc1)c1ccc2[nH]ncc2c1)c1cccc(-c2cscn2)c1 [Compound 392, (E)-3-(4-((E)-1-(1H-Indazol-5-yl)-2-(3-(thiazol-4-yl)phenyl)but-1-en-1-yl)phenyl)acrylic acid] | ≥ 40 | ≤ 100 | ++ (++ = a single % value ≧ 40%) | ≤ 100 |
| CC/C(=C(/c1ccc(/C=C/C(=O)O)cc1)c1ccc2[nH]ncc2c1)c1cccc(-c2cccnc2)c1 [Compound 393, (E)-3-(4-((E)-1-(1H-Indazol-5-yl)-2-(3-(pyridin-3-yl)phenyl)but-1-en-1-yl)phenyl)acrylic acid] | ≥ 40 | ≤ 100 | ++ (++ = a single % value ≧ 40%) | ≤ 100 |
| CC/C(=C(/c1ccc(/C=C/C(=O)O)cc1)c1ccc2[nH]ncc2c1)c1cccc(-c2ccncc2)c1 [Compound 394, (E)-3-(4-((E)-1-(1H-Indazol-5-yl)-2-(3-(pyridin-4-yl)phenyl)but-1-en-1-yl)phenyl)acrylic acid] | ≥ 40 | ≤ 100 | ++ (++ = a single % value ≧ 40%) | > 100 |
| CC/C(=C(/c1ccc(/C=C/C(=O)O)cc1)c1ccc2[nH]ncc2c1)c1ccc(-c2cnsc2)cc1 [Compound 395, (E)-3-(4-((E)-1-(1H-Indazol-5-yl)-2-(4-(isothiazol-4-yl)phenyl)but-1-en-1-yl)phenyl)acrylic acid] | ≥ 40 | ≤ 100 | ++ (++ = a single % value ≧ 40%) | > 100 |
| CC/C(=C(/c1ccc(/C=C/C(=O)O)cc1)c1ccc2[nH]ncc2c1)c1ccc(N(C)c2ccccc2)cc1 [Compound 396, (E)-3-(4-((E)-1-(1H-Indazol-5-yl)-2-(4-(methyl(phenyl)amino)phenyl)but-1-en-1-yl)phenyl)acrylic acid & (E)-3-(4-((Z)-1-(1H-indazol-5-yl)-2-(4-(methyl(phenyl)amino)phenyl)but-1-en-1-yl)phenyl)acrylic acid (1:1 Mixture)] | ≥ 40 | > 100 | ++ (++ = a single % value ≧ 40%) | > 100 |
| CC/C(=C(/c1ccc(/C=C/C(=O)O)cc1)c1ccc2[nH]ncc2c1)c1ccc(Nc2ccccc2)cc1 [Compound 397, (E)-3-(4-((E)-1-(1H-Indazol-5-yl)-2-(4-(phenylamino)phenyl)but-1-en-1-yl)phenyl)acrylic acid] | ≥ 40 | ≤ 100 | ++ (++ = a single % value ≧ 40%) | ≤ 100 |
| CC/C(=C(/c1ccc(/C=C/C(=O)O)cc1)c1ccc2nn(C(F)F)cc2c1)c1ccc(F)cc1Cl [Compound 402, (E)-3-(4-((E)-2-(2-Chloro-4-fluorophenyl)-1-(2-(difluoromethyl)-2H-indazol-5-yl)but-1-en-1-yl)phenyl)acrylic acid] | ≥ 40 | ≤ 100 | ++ (++ = a single % value ≧ 40%) | ≤ 100 |
| CC/C(=C(/c1ccc(/C=C/C(=O)O)cc1)c1ccc2c(cnn2C(C)=O)c1)c1ccc(F)cc1Cl [Compound 403, (E)-3-(4-((E)-1-(1-Acetyl-1H-indazol-5-yl)-2-(2-chloro-4-fluorophenyl)but-1-en-1-yl)phenyl)acrylic acid] | ≥ 40 | ≤ 100 | ++ (++ = a single % value ≧ 40%) | ≤ 100 |
| CC/C(=C(/c1ccc(/C=C/C(=O)O)cc1)c1ccc2c(cnn2C(=O)C(C)C)c1)c1ccc(F)cc1Cl [Compound 404, (E)-3-(4-((E)-2-(2-Chloro-4-fluorophenyl)-1-(1-isobutyryl-1H-indazol-5-yl)but-1-en-1-yl)phenyl)acrylic acid] | ≥ 40 | ≤ 100 | ++ (++ = a single % value ≧ 40%) | ≤ 100 |
| CC/C(=C(/c1ccc(/C=C/C(=O)O)cc1)c1ccc2c(cnn2C(=O)C(C)(C)C)c1)c1ccc(F)cc1Cl [Compound 405, (E)-3-(4-((E)-2-(2-Chloro-4-fluorophenyl)-1-(1-pivaloyl-1H-indazol-5-yl)but-1-en-1-yl)phenyl)acrylic acid] | ≥ 40 | ≤ 100 | ++ (++ = a single % value ≧ 40%) | ≤ 100 |
| CCOC(=O)n1ncc2cc(/C(=C(\CC)c3ccc(F)cc3Cl)c3ccc(/C=C/C(=O)O)cc3)ccc21 [Compound 406, (E)-3-(4-((E)-2-(2-Chloro-4-fluorophenyl)-1-(1-(ethoxycarbonyl)-1H-indazol-5-yl)but-1-en-1-yl)phenyl)acrylic acid] | ≥ 40 | ≤ 100 | ++ (++ = a single % value ≧ 40%) | ≤ 100 |
| CC/C(=C(/c1ccc(/C=C/C(=O)NS(C)(=O)=O)cc1)c1ccc2[nH]ncc2c1)c1ccc(F)cc1Cl [Compound 408, (E)-3-(4-((E)-2-(2-Chloro-4-fluorophenyl)-1-(1H-indazol-5-yl)but-1-en-1-yl)phenyl)-N-(methylsulfonyl)acrylamide] | ≥ 40 | ≤ 100 | ++ (++ = a single % value ≧ 40%) | ≤ 100 |
| CCCS(=O)(=O)NC(=O)/C=C/c1ccc(/C(=C(/CC)c2ccc(F)cc2Cl)c2ccc3[nH]ncc3c2)cc1 [Compound 409, (E)-3-(4-((E)-2-(2-Chloro-4-fluorophenyl)-1-(1H-indazol-5-yl)but-1-en-1-yl)phenyl)-N-(propylsulfonyl)acrylamide] | ≥ 40 | ≤ 100 | ++ (++ = a single % value ≧ 40%) | ≤ 100 |
| CCCCCS(=O)(=O)NC(=O)/C=C/c1ccc(/C(=C(/CC)c2ccc(F)cc2Cl)c2ccc3[nH]ncc3c2)cc1 [Compound 410, (E)-3-(4-((E)-2-(2-Chloro-4-fluorophenyl)-1-(1H-indazol-5-yl)but-1-en-1-yl)phenyl)-N-(pentylsulfonyl)acrylamide] | ≥ 40 | ≤ 100 | ++ (++ = a single % value ≧ 40%) | ≤ 100 |
| CNC(=O)/C=C/c1ccc(/C(=C(\c2ccccc2)C2CCC2)c2ccc3c(cnn3C)c2)cc1 [Compound 411, (E)-3-(4-((E)-2-Cyclobutyl-1-(1-methyl-1H-indazol-5-yl)-2-phenylvinyl)phenyl)-N-methylacrylamide] | ≥ 40 | ≤ 100 | ++ (++ = a single % value ≧ 40%) | ≤ 100 |
